Results reported in paper PMC7188728, “A phase I study investigation of metabolism, and disposition of [^14C]-anlotinib after an oral administration in patients with advanced refractory solid tumors” (Cancer Chemotherapy and Pharmacology, 2020).
Counter-ions that a name gives are not always drawn.

Columns and labels:
[1] = Adverse events after a single dose of 14C anlotinib suspension; assay type: in vivo, human
[2] = design: method as in PMID 29620050; settings: rats and dogs; cited from earlier work
VEGFR2/KDR and VEGFR3 = system: VEGFR2/KDR and VEGFR3; design: method as in PMID 29454091; settings: recombinant enzymes; cited from earlier work
[3] = system: human cytochrome P450 2C9; design: method as in PMID 29441353; settings: in vitro; read-out: Half maximum inhibitory concentration; cited from earlier work
[4] = system: advanced refractory solid tumors; assay: Tumor response evaluation in patients with advanced refractory solid tumors; assay type: in vivo, human; settings: six patients enrolled
[5] = Total radioactivity pharmacokinetics in plasma after single oral [14C]-anlotinib hydrochloride; assay type: in vivo, human
Protocol: The blood samples were collected before orally administration and 0.5, 2, 4, 8, 10, 12, 24, 48, 72, 96, 120, 144, 168, 192, 216, 240, 288, 312, 384, 408, 456, 480, 552, 840, 888, and 1416 h after orally administration. An aliquot of the blood samples was mixed gently and chilled immediately under − 20 °C; the remainder was centrifuged at 1660 g for 10 min at 4 °C to separate the plasma samples.
Levels of radioactivity in plasma, urine, and extracts of fecal samples were determined by mixing individual samples with 5 mL scintillation cocktail and determined by counting directly in a liquid scintillation counter (LSC). Blood, fecal homogenates, and post extraction solids were combusted with OX-501 Biological Sample Oxidizer, the ^14CO2 formed were trapped directly in 15 mL scintillation cocktail, followed by counting with LSC. Samples were assayed with a liquid scintillation counter for 5 min.
The peak concentration (Cmax) and the time to Cmax (Tmax) were obtained through the plasma concentration directly. The area under concentration–time curve up to the last measured time point (AUC0−t) was calculated by the trapezoidal rule. The k was estimated by linear regression analysis of the terminal portion of the log concentration–time data, and the elimination half-life (t1/2) was calculated through the coefficient 0.693/k. The renal clearance (CLR) was calculated by dividing the cumulative amount excreted into urine (Cum. Ae−U) by plasma AUC0−t.

[6] = six male patients, single oral 14.15 mg/80 or 120 µCi
[7] = suspension here vs capsule in the previous study

COc1cc2c(Oc3ccc4[nH]c(C)cc4c3F)ccnc2cc1OCC1(N)CC1 [anlotinib, 1-[[4-(4-fluoro-2-methyl-1H-indol-5-yloxy)-6-methoxyquinolin-7-yl]oxy]methyl) cyclopropanamine dihydrochloride]
twice: AUC relative to the published phase I study [5, 7] | Cmax relative to the published phase I study [5, 7]
250 nM: IC50 [3]
13,555 h∙ng Eq./g: AUC0-∞ of total radioactivity in plasma, average [5, 6]
4071 h∙ng Eq./g: AUC0-last (AUClast) of total radioactivity in plasma, average [5, 6]
0 n (%): Alkaline phosphatase increased: number of cases of grade 3 (%) ([1]; D1 ~ D18, N = 6) | Anemia: number of cases of grade 3 (%) ([1]; D1 ~ D18, N = 6) | Aspartate aminotransferase increased: number of cases of grade 1/2 (%) ([1]; D1 ~ D18, N = 6) | Constipation: number of cases of grade 3 (%) ([1]; D1 ~ D18, N = 6) | Cough: number of cases of grade 3 (%) ([1]; D1 ~ D18, N = 6) | Diarrhea: number of cases of grade 3 (%) ([1]; D1 ~ D18, N = 6) | Hemoptysis: number of cases of grade 1/2 (%) ([1]; D1 ~ D18, N = 6) | Hemoptysis: number of cases of grade 3 (%) ([1]; D1 ~ D18, N = 6) | Hypertriglyceridemia: number of cases of grade 3 (%) ([1]; D1 ~ D18, N = 6) | Hypoalbuminemia: number of cases of grade 3 (%) ([1]; D1 ~ D18, N = 6) | Hypocalcemia: number of cases of grade 3 (%) ([1]; D1 ~ D18, N = 6) | Hypothyroidism: number of cases of grade 3 (%) ([1]; D1 ~ D18, N = 6) | Increased lactate dehydrogenase: number of cases of grade 3 (%) ([1]; D1 ~ D18, N = 6) | Insomnia: number of cases of grade 3 (%) ([1]; D1 ~ D18, N = 6) | Liver function damage: number of cases of grade 1/2 (%) ([1]; D1 ~ D18, N = 6) | Proteinuria: number of cases of grade 3 (%) ([1]; D1 ~ D18, N = 6) | Rapid atrial fibrillation: number of cases of grade 3 (%) ([1]; D1 ~ D18, N = 6) | Sinus bradycardia: number of cases of grade 3 (%) ([1]; D1 ~ D18, N = 6) | Sinus tachycardia: number of cases of grade 3 (%) ([1]; D1 ~ D18, N = 6) | Stomachache: number of cases of grade 3 (%) ([1]; D1 ~ D18, N = 6) | Alkaline phosphatase increased: number of cases of grade 3 (%) ([1]; Research process, N = 6) | Anemia: number of cases of grade 3 (%) ([1]; Research process, N = 6) | Aspartate aminotransferase increased: number of cases of grade 1/2 (%) ([1]; Research process, N = 6) | Constipation: number of cases of grade 3 (%) ([1]; Research process, N = 6) | Cough: number of cases of grade 3 (%) ([1]; Research process, N = 6) | Diarrhea: number of cases of grade 3 (%) ([1]; Research process, N = 6) | Hemoptysis: number of cases of grade 3 (%) ([1]; Research process, N = 6) | Hypertriglyceridemia: number of cases of grade 3 (%) ([1]; Research process, N = 6) | Hypoalbuminemia: number of cases of grade 3 (%) ([1]; Research process, N = 6) | Hypocalcemia: number of cases of grade 3 (%) ([1]; Research process, N = 6) | Hypothyroidism: number of cases of grade 3 (%) ([1]; Research process, N = 6) | Increased lactate dehydrogenase: number of cases of grade 3 (%) ([1]; Research process, N = 6) | Insomnia: number of cases of grade 3 (%) ([1]; Research process, N = 6) | Liver function damage: number of cases of grade 1/2 (%) ([1]; Research process, N = 6) | Proteinuria: number of cases of grade 3 (%) ([1]; Research process, N = 6) | Rapid atrial fibrillation: number of cases of grade 3 (%) ([1]; Research process, N = 6) | Sinus bradycardia: number of cases of grade 3 (%) ([1]; Research process, N = 6) | Sinus tachycardia: number of cases of grade 3 (%) ([1]; Research process, N = 6) | Stomachache: number of cases of grade 3 (%) ([1]; Research process, N = 6)
2 (33.33%) n (%): Constipation: number of cases of grade 1/2 (%) ([1]; D1 ~ D18, N = 6) | Increased lipase: number of cases of grade 1/2 (%) ([1]; D1 ~ D18, N = 6) | Increased lipase: number of cases of grade 3 (%) ([1]; D1 ~ D18, N = 6) | Insomnia: number of cases of grade 1/2 (%) ([1]; D1 ~ D18, N = 6) | Constipation: number of cases of grade 1/2 (%) ([1]; Research process, N = 6) | Diarrhea: number of cases of grade 1/2 (%) ([1]; Research process, N = 6) | Increased lipase: number of cases of grade 1/2 (%) ([1]; Research process, N = 6) | Increased lipase: number of cases of grade 3 (%) ([1]; Research process, N = 6) | Insomnia: number of cases of grade 1/2 (%) ([1]; Research process, N = 6)
one: Patients in whom severe adverse events (SAE) occurred ([1]; six patients, follow-up period) | Tumor response: partial response (PR) [4] | Tumor response: progressive disease (PD) [4]
18.80 ng Eq./g: Cmax of total radioactivity (TRA) in plasma, average [5, 6]
5 (83.33%) n (%): At least once (any adverse event): number of cases of grade 1/2 (%) ([1]; D1 ~ D18, N = 6)
3 (50%) n (%): At least once (any adverse event): number of cases of grade 3 (%) ([1]; D1 ~ D18, N = 6) | Hypoalbuminemia: number of cases of grade 1/2 (%) ([1]; D1 ~ D18, N = 6) | At least once (any adverse event): number of cases of grade 3 (%) ([1]; Research process, N = 6) | Hypoalbuminemia: number of cases of grade 1/2 (%) ([1]; Research process, N = 6)
4.42 h: Tmax of total radioactivity (TRA) in plasma, average [5, 6]
five: Patients in whom adverse events occurred ([1]; six patients, after a single dosage)
1 (16.67%) n (%): Alkaline phosphatase increased: number of cases of grade 1/2 (%) ([1]; D1 ~ D18, N = 6) | Anemia: number of cases of grade 1/2 (%) ([1]; D1 ~ D18, N = 6) | Aspartate aminotransferase increased: number of cases of grade 3 (%) ([1]; D1 ~ D18, N = 6) | Cough: number of cases of grade 1/2 (%) ([1]; D1 ~ D18, N = 6) | Diarrhea: number of cases of grade 1/2 (%) ([1]; D1 ~ D18, N = 6) | Hypertriglyceridemia: number of cases of grade 1/2 (%) ([1]; D1 ~ D18, N = 6) | Hypocalcemia: number of cases of grade 1/2 (%) ([1]; D1 ~ D18, N = 6) | Hypophosphatemia: number of cases of grade 1/2 (%) ([1]; D1 ~ D18, N = 6) | Hypophosphatemia: number of cases of grade 3 (%) ([1]; D1 ~ D18, N = 6) | Hypothyroidism: number of cases of grade 1/2 (%) ([1]; D1 ~ D18, N = 6) | Increased alanine aminotransferase: number of cases of grade 1/2 (%) ([1]; D1 ~ D18, N = 6) | Increased alanine aminotransferase: number of cases of grade 3 (%) ([1]; D1 ~ D18, N = 6) | Increased blood bilirubin: number of cases of grade 1/2 (%) ([1]; D1 ~ D18, N = 6) | Increased blood bilirubin: number of cases of grade 3 (%) ([1]; D1 ~ D18, N = 6) | Increased lactate dehydrogenase: number of cases of grade 1/2 (%) ([1]; D1 ~ D18, N = 6) | Increased γ-glutamyl transpeptidase: number of cases of grade 1/2 (%) ([1]; D1 ~ D18, N = 6) | Increased γ-glutamyl transpeptidase: number of cases of grade 3 (%) ([1]; D1 ~ D18, N = 6) | Liver function damage: number of cases of grade 3 (%) ([1]; D1 ~ D18, N = 6) | Proteinuria: number of cases of grade 1/2 (%) ([1]; D1 ~ D18, N = 6) | Rapid atrial fibrillation: number of cases of grade 1/2 (%) ([1]; D1 ~ D18, N = 6) | Sinus bradycardia: number of cases of grade 1/2 (%) ([1]; D1 ~ D18, N = 6) | Sinus tachycardia: number of cases of grade 1/2 (%) ([1]; D1 ~ D18, N = 6) | Stomachache: number of cases of grade 1/2 (%) ([1]; D1 ~ D18, N = 6) | Alkaline phosphatase increased: number of cases of grade 1/2 (%) ([1]; Research process, N = 6) | Anemia: number of cases of grade 1/2 (%) ([1]; Research process, N = 6) | Aspartate aminotransferase increased: number of cases of grade 3 (%) ([1]; Research process, N = 6) | Cough: number of cases of grade 1/2 (%) ([1]; Research process, N = 6) | Hemoptysis: number of cases of grade 1/2 (%) ([1]; Research process, N = 6) | Hypertriglyceridemia: number of cases of grade 1/2 (%) ([1]; Research process, N = 6) | Hypocalcemia: number of cases of grade 1/2 (%) ([1]; Research process, N = 6) | Hypophosphatemia: number of cases of grade 1/2 (%) ([1]; Research process, N = 6) | Hypophosphatemia: number of cases of grade 3 (%) ([1]; Research process, N = 6) | Hypothyroidism: number of cases of grade 1/2 (%) ([1]; Research process, N = 6) | Increased alanine aminotransferase: number of cases of grade 1/2 (%) ([1]; Research process, N = 6) | Increased alanine aminotransferase: number of cases of grade 3 (%) ([1]; Research process, N = 6) | Increased blood bilirubin: number of cases of grade 1/2 (%) ([1]; Research process, N = 6) | Increased blood bilirubin: number of cases of grade 3 (%) ([1]; Research process, N = 6) | Increased lactate dehydrogenase: number of cases of grade 1/2 (%) ([1]; Research process, N = 6) | Increased γ-glutamyl transpeptidase: number of cases of grade 1/2 (%) ([1]; Research process, N = 6) | Increased γ-glutamyl transpeptidase: number of cases of grade 3 (%) ([1]; Research process, N = 6) | Liver function damage: number of cases of grade 3 (%) ([1]; Research process, N = 6) | Proteinuria: number of cases of grade 1/2 (%) ([1]; Research process, N = 6) | Rapid atrial fibrillation: number of cases of grade 1/2 (%) ([1]; Research process, N = 6) | Sinus bradycardia: number of cases of grade 1/2 (%) ([1]; Research process, N = 6) | Sinus tachycardia: number of cases of grade 1/2 (%) ([1]; Research process, N = 6) | Stomachache: number of cases of grade 1/2 (%) ([1]; Research process, N = 6)
~500 times: Capability to inhibit VEGFR2/KDR and VEGFR3, times stronger compared with sorafenib (VEGFR2/KDR and VEGFR3)
approximately 20 times: Capability to inhibit VEGFR2/KDR and VEGFR3, times stronger compared with sunitinib (VEGFR2/KDR and VEGFR3)
good membrane permeability: Membrane permeability [2]
absorbed quickly: Absorption [2]
